# In patent publication US5925667A, “Pyrrolidine derivative, anti-ulcer drug, and antibacterial drug” (Shiseido Co., Ltd., priority 1997, dated 1999):
# Legend:
# stress ulcer = assay: WIS: Restraint and Water Immersion Stress-Induced Ulcer Inhibition Test; format: in vivo, male Crj:SD or Slc:SD rats; conditions: rat, 100 mg/kg oral, 7 h water immersion stress; read-out: ulcer formation inhibitory rate (WIS)
# Procedure: WIS: Restraint and Water Immersion Stress-Induced Ulcer Inhibition Test
# The degree of inhibition of the stress ulcer formation is tested.
# Male Crj:SD or Slc:SD rats (6 to 7-week-old) were fasted overnight, but allowed free access to water. Each group has 5 to 8 of these rats. The sample compound was dissolved or suspended in an aqueous solution of 0.3% sodium carboxymethylcellulose or 0.05% Tween 80 and then was orally administered (100 mg/10 ml/kg. To a control group, the vehicle was administered. 10 minutes later, the rats were placed in a stress cage and immersed to the level of xipfoid process in a water bath (21° C.) for 7 hours. At the end of the stress, the rats were sacrificed by inhalation of ether or carbon dioxide. Then, the stomach of each was removed, inflated by injecting 10 ml of 5% formalin neutral buffer solution, and immersed in 1% formalin neutral buffer solution for 30 minutes or more to be fixed. The stomach was incised along the greater curvature and then the length of each erosion in the glandular portion was determined under dissecting microscope. The sum of the length of erosions per stomach was defined as ulcer index (UI).
# The effect obtained when 100 mg/kg of the sample compound had been administered was expressed as ulcer formation inhibitory rate (%) as follows:
# ulcer formation inhibitory rate (%)=(1-(UI in sample group/UI in control group))×100
# [1] = test system: isolated gastric fundic gland; assay: CAP: Acid Secretion Inhibition Test In Vitro ([14C]-aminopyrine uptake test); format: cell-based, male Japanese White rabbit; conditions: Oryctolagus cuniculus; final concentration 10^-5 M, histamine 10^-5 M; read-out: acid secretion inhibitory rate (CAP)
# Procedure: CAP: Acid Secretion Inhibition Test In Vitro
# The acid secretion inhibitory activity in a cell level is studied. It can also be used for studying the mechanism of the effect.
# ii-a) Preparation of isolated gastric fundus gland suspension
# First, an isolated gastric fundic gland sample was prepared. Namely, a male Japanese White rabbit (2.5 to 3 kg) was anesthetized to death with Nembutal™ and then the abdomen was incised. Immediately thereafter, the stomach was removed and, after its pyloric and cardiac antrum were severed, incised along its greater curvature into two sheets. The gastric contents adhering to the mucosal surface was washed out with ice-cooled PBS (-) and then carefully washed therein. The gastric wall was spread on a cork board with its mucosal surface facing up and the feed and mucus thereon were completely removed with sterile gauze. The mucosa was separated therefrom by a spatula and then collected in ice-cooled PBS (-). After being washed twice with PBS (-), the mucosa was minced into 2-3 mm^3 pieces by scissors. These pieces were further washed twice with a nutrient solution. The nutrient solution comprises 132.4 mM of NaCl, 5.4 mM of KCl, 5 mM of Na2 HPO4.12H2 O, 1 mM of NaH2 PO4.2H2,
# 1.2 mM of MgSO4, 1 mM of CaCl2, 25 mM of HEPES, 2 mg/ml of glucose, and 1 mg/ml of BSA.
# Into 70 ml of the nutrient solution containing 1 mg/ml of collagenase, minced mucosal pieces were dispersed and intensely stirred in a conical flask with a stirrer at 37° C. for 40 to 60 minutes. During this period, 100% O2 was sprayed on the nutrient solution surface and the pH was appropriately measured such that it was immediately adjusted to pH 7.4, when the value was therebelow, with a base. The nutrient solution was added to the reaction solution so as to attain the total amount of about 200 ml. After being filtered through a mesh, the suspension was divisionally introduced into 50 ml centrifuge tubes and left for 15 minutes such that gastric fundic gland was deposited. The supernatant was repeatedly removed by an aspirator, dispersed in the nutrient solution, and then left such that the gastric fundic gland was washed three times. At this time, without using a pipette, the suspension was alternately introduced into two centrifuge tubes so as to effect dispersion. The number of cells was counted under microscope and adjusted to 1.6×10^6 cells/ml.
# ii-b) [^14 C]-aminopyrine uptake test.
# Then, [^14 C]-aminopyrine uptake test was performed. After an Eppendorf tube was weighed, 10 μl (final concentration: 10^-5 M) of histamine dissolved in the above-mentioned nutrient solution, 10 μl (final concentration: 10^-5 M) of the test compound dissolved in DMSO, and 10 μl (final concentration: 0.05 μCi/ml) of [^14 C]-aminopyrine diluted with the nutrient solution were introduced therein and then 970 μl of the isolated gastric fundic gland suspension prepared above was added thereto. Subsequently, this mixture was shaken at 37° C. for 40 minutes at 125 cycles/minute. After being centrifuged for 30 seconds, 200 μl of its supernatant was collected into a mini-vial, while the rest was removed by an aspirator. The gland pellet was completely dried as the tube with its lid being opened was kept for one night in a drying oven at 80° C. and then the lid was closed and the weight was determined at room temperature. Then 100 μl of 1N KOH was added thereto and the tube with its lid being closed was treated at 60° C. for 1 to 2 hours so as to dissolve the pellet. Then, the contents thereof were transferred to a mini-vial. Into the mini-vial containing the supernatant or gland pellet, 4 ml of Atomlite™ was added and then the radioactivity was measured by a liquid scintillation counter. Here, after the radioactivity of the gland pellet was corrected by using a sample in which 20 mM of NaSCN was added so as to cancel the hydrogen ion concentration gradient, the integration ratio of aminopyrine specifically trapped by the gland pellet was calculated. […]
# [2] = MTT: Cell Damaging and Protecting Effect Test; format: cell-based, male Japanese White rabbit; conditions: rabbit, gastric mucosa cells, final concentration 10^-4 M, smaller value is better, read-out: cell damaging rate (MTT)
# Source text: MTT: Cell Damaging and Protecting Effect Test
# It is confirmed that there is no toxicity in cell level. Those having a toxicity in cell level are inappropriate as an anti-ulcer drug.
# A male Japanese White rabbit (2.5 to 3 kg) was anesthetized to death by Nembutal™ and, immediately thereafter, its stomach was removed. The greater curvature of the stomach was incised so as to remove the stomach contents therefrom. After the mucosal surface was washed with HBSS (Hanks' Balanced Salt Solution), the stomach in ice-cooled HBSS was transferred to a laboratory. Then, after the pyloric antrum was removed, the gastric corpus mucosa was separated by a spatula and then minced into 2 to 3 mm^3 pieces in BME (Basal Medium Eagle). Thereafer, these pieces were shaken at 120 to 130 cycles/minute for 15 minutes at 37° C. in BME 60 ml containing 280 U/ml of dispase and 30 to 50 U/ml of collagenase. Here, the concentration of collagenase was appropriately changed for each lot in view of the state of cells. The pieces were washed twice with EBSS (Earle's Balanced Salt Solution) containing 1 mM of EDTA and then shaken in MEM (Minimum Essential Medium) containing 1 mM of EDTA at 37° C. for 5 minutes. Subsequently, they were shaken in the dispase and collagenase having the same concentrations as those mentioned above for 15 minutes so as to remove the supernatant and then further shaken at 37° C. for 50 to 60 minutes at 120 to 130 cycles/minute. Then, after being washed twice with HBSS, Ham F12 containing 2% of Ultrocer G™ was used to attain the concentration of 1×10^6 cells/ml. Thus formed suspension was dispensed in each well of a 96-well plate by 200 μl. The plate was incubated in the atmosphere composed of 5% CO2 and 95% air at 37° C. for three days so as to attain a confluent state and then subjected to MTT assay.
# The sample compound was dissolved in DMSO so as to attain a concentration of 10^-2 M and then diluted with HBSS containing 2% of Ultrocer G™ so as to attain a final concentration of 10^-4 M. To each group, which 8 wells were used for, 10 μl of MTT reagent was added immediately after 100 μl of the medium in each well was exchanged for same volume of the resulting solution of the sample compound. After being incubated in an atmosphere composed of 5% CO2 and 95% air at 37° C. for 4 hours, thus formed solution was centrifuged and then its supernatant was discarded. Subsequently, 100 μl of 100% ethanol was added to the residue so as to dissolve MTT formazan. Then, the absorbance (OD: 570 to 630) was measured by a microplate reader. This method utilizes a phenomenon in which MTT is changed to MTT formazan only by mitochondria of living cells so as to change color.
# The cell damaging or cell protecting effect of the sample compound at the final concentration of 10^-4 M was expressed as cell damaging rate (%) as follows:
# cell damaging rate (%)=(1-(absorbance in sample group/absorbance in control group))×100
# Accordingly, the smaller value is better in the cell damaging rate.
structure (smiles),measurement,setting,value
"CCN1CCCC1CNC(=O)c1cc(OC/C=C(\C)CCC=C(C)C)cc(OC/C=C(\C)CCC=C(C)C)c1 (stereo not shown) [Example 12, 1-ethyl-2-(3,5-digeranyloxybenzoylaminomethyl)pyrrolidine]",inhibition in vivo at 100 mg/kg,stress ulcer,82%
same,inhibition at 10 µM,[1],100%
same,"cytotoxicity at 4 h, 100 µM",[2],29%
"CCN1CCCC1CNC(=O)c1cc(OCC=C(C)C)c(OCC=C(C)C)c(OCC=C(C)C)c1 (stereo not shown) [Example 13, 1-ethyl-2-(3,4,5-triprenyloxybenzoylaminomethyl)pyrrolidine]",inhibition in vivo at 100 mg/kg,stress ulcer,57%
"CCN1CCCC1CNC(=O)c1cc(OC)c(OCC=C(C)C)c(OC)c1 (stereo not shown) [Example 24, 1-ethyl-2-(3,5-dimethoxy-4-prenyloxybenzoylaminomethyl)pyrrolidine]",inhibition in vivo at 100 mg/kg,stress ulcer,79%
same,"cytotoxicity at 4 h, 100 µM",[2],12%
"CCN1CCCC1CNC(=O)c1ccc(OC/C=C(\C)CCC=C(C)C)cc1 (stereo not shown) [Example 1, 1-ethyl-2-(4-geranyloxybenzoylaminomethyl)pyrrolidine]",inhibition in vivo at 100 mg/kg,stress ulcer,80%
"CCN1CCCC1CNC(=O)c1ccccc1OC/C=C(\C)CCC=C(C)C (stereo not shown) [Example 2, 1-ethyl-2-(2-geranyloxybenzoylaminomethyl)pyrrolidine]",inhibition in vivo at 100 mg/kg,stress ulcer,85%
same,inhibition at 10 µM,[1],99.7%
same,"cytotoxicity at 4 h, 100 µM",[2],19%
"CCN1CCCC1CNC(=O)c1ccc(OC/C=C(\C)CCC=C(C)C)nc1 (stereo not shown) [Example 27, 1-ethyl-2-(6-gearnyloxynicotinoylaminomethyl)pyrrolidine]",inhibition in vivo at 100 mg/kg,stress ulcer,88%
same,inhibition at 10 µM,[1],81%
"CCN1CCCC1CNC(=O)c1cccc(OC)c1OC/C=C(\C)CCC=C(C)C (stereo not shown) [Example 17, 1-ethyl-2-(2-geranyloxy-3-methoxybenzoylaminomethyl)pyrrolidine]",inhibition in vivo at 100 mg/kg,stress ulcer,82%
same,inhibition at 10 µM,[1],100%
same,"cytotoxicity at 4 h, 100 µM",[2],22%
"CCN1CCCC1CNC(=O)c1ccc(OCC=C(C)C)cc1OCC=C(C)C (stereo not shown) [Example 5, 1-ethyl-2-(2,4-diprenyloxybenzoylaminomethyl)pyrrolidine]",inhibition in vivo at 100 mg/kg,stress ulcer,70%
same,inhibition at 10 µM,[1],100%
same,"cytotoxicity at 4 h, 100 µM",[2],9%
"CCN1CCCC1CNC(=O)c1ccc(OCC=C(C)C)nc1 (stereo not shown) [Example 26, 1-ethyl-2-(6-prenyloxynicotinoylaminomethyl)pyrrolidine]",inhibition in vivo at 100 mg/kg,stress ulcer,48%
same,"cytotoxicity at 4 h, 100 µM",[2],-8%
"CCN1CCCC1CNC(=O)c1cc(OC)c(OC)c(OC/C=C(\C)CCC=C(C)C)c1 (stereo not shown) [Example 22, 1-ethyl-2-(3,4-dimethoxy-5-geranyloxybenzoylaminomethyl)pyrrolidine]",inhibition in vivo at 100 mg/kg,stress ulcer,80%
"CCN1CCCC1CNC(=O)c1ccc(OC)c(OC/C=C(\C)CCC=C(C)C)c1 (stereo not shown) [Example 15, 1-ethyl-2-(3-geranyloxy-4-methoxybenzoylaminomethyl)pyrrolidine]",inhibition in vivo at 100 mg/kg,stress ulcer,91%
same,"cytotoxicity at 4 h, 100 µM",[2],2%
"CCN1CCCC1CNC(=O)c1cc(F)ccc1OC/C=C(\C)CCC=C(C)C (stereo not shown) [Example 20, 1-ethyl-2-(3-fluoro-6-geranyloxybenzoylaminomethyl)pyrrolidine]",inhibition in vivo at 100 mg/kg,stress ulcer,89%
same,"cytotoxicity at 4 h, 100 µM",[2],23%
"CCN1CCCC1CNC(=O)c1ccc(OC)cc1OC/C=C(\C)CCC=C(C)C (stereo not shown) [Example 18, 1-ethyl-2-(2-geranyloxy-4-methoxybenzoylaminomethyl)pyrrolidine]",inhibition in vivo at 100 mg/kg,stress ulcer,76%
same,"cytotoxicity at 4 h, 100 µM",[2],4%
"CCN1CCCC1CNC(=O)c1ccc(OC/C=C(\C)CCC=C(C)C)c(OC/C=C(\C)CCC=C(C)C)c1 (stereo not shown) [Example 11, 1-ethyl-2-(3,4-digeranyloxybenzoylaminomethyl)pyrrolidine]",inhibition in vivo at 100 mg/kg,stress ulcer,75%
"CCN1CCCC1CNC(=O)c1cccnc1OCC=C(C)C (stereo not shown) [Example 25, 1-ethyl-2-(2-prenyloxynicotinoylaminomethyl)pyrrolidine]",inhibition in vivo at 100 mg/kg,stress ulcer,90%
same,"cytotoxicity at 4 h, 100 µM",[2],-15%
"CCN1CCCC1CNC(=O)c1cc(OC)ccc1OC/C=C(\C)CCC=C(C)C (stereo not shown) [Example 19, 1-ethyl-2-(2-geranyloxy-5-methoxybenzoylaminomethyl)pyrrolidine]",inhibition in vivo at 100 mg/kg,stress ulcer,89%
same,"cytotoxicity at 4 h, 100 µM",[2],21%
"CCN1CCCC1CNC(=O)c1cc(OC)c(OC/C=C(\C)CCC=C(C)C)c(OC)c1 (stereo not shown) [Example 21, 1-ethyl-2-(3,5-dimethoxy-4-geranyloxybenzoylaminomethyl)pyrrolidine]",inhibition in vivo at 100 mg/kg,stress ulcer,76%
"CCN1CCCC1CNC(=O)c1ccc(OC/C=C(\C)CCC=C(C)C)cc1OC/C=C(\C)CCC=C(C)C (stereo not shown) [Example 9, 1-ethyl-2-(2,4-digeranyloxybenzoylaminomethyl)pyrrolidine]",inhibition in vivo at 100 mg/kg,stress ulcer,66%
